Here are results for 27 molecules from patent US8927738B2, “2-arylimidazole derivatives as PDE10A enzyme inhibitors” (H. Lundbeck A/S, priority 2009, dated 2015).

Each structure is given as a SMILES string.

One assay concerns rats.
Assay: not given
The settings on record: papaverine alone; cited from earlier work.
As to `COc1ccc(Cc2nccc3cc(OC)c(OC)cc23)cc1OC` [Papaverine, papaverine], the “catalepsy caused on its own” value is “did not cause catalepsy on its own”.

Staying with this assay, now noted: with the D2 receptor antagonist haloperidol; cited from earlier work.
On to `COc1ccc(Cc2nccc3cc(OC)c(OC)cc23)cc1OC` [Papaverine, papaverine], for which the “effect on the cataleptic effect of haloperidol” value was “potentiated the cataleptic effect”.

For the next assay, the target named is PDE10A enzyme (Homo sapiens (Human), UniProt Q9Y233). The assay can be described thus: PDE10A inhibition assay. It counts as biochemical. The settings on record: tritium labeled cAMP substrate 5 nM. The protocol: Active PDE10A enzyme is prepared in a number of ways for use in PDE assays (Loughney, K. et al. Gene 1999, 234, 109-117; Fujishige, K. et al. Eur J Biochem. 1999, 266, 1118-1127 and Soderling, S. et al. Proc. Natl. Acad. Sci. 1999, 96, 7071-7076). PDE10A can be expressed as full-length proteins or as truncated proteins, as long as they express the catalytic domain. PDE10A can be prepared in different cell types, for example insect cells or E. coli. An example of a method to obtain catalytically active PDE10A is as follows: The catalytic domain of human PDE10A (amino acids 440-779 from the sequence with accession number NP 006652) is amplified from total human brain total RNA by standard RT-PCR and is cloned into the BamH1 and Xho1 sites of the pET28a vector (Novagen). Expression in coli is performed according to standard protocols. Briefly, the expression plasmids are transformed into the BL21(DE3) E. coli strain, and 50 mL cultures inoculated with the cells allowed to grow to an OD600 of 0.4-0.6 before protein expression is induced with 0.5 mM IPTG. Following induction, the cells are incubated overnight at room temperature, after which the cells are collected by centrifugation. Cells expressing PDE10A are resuspended in 12 mL (50 mM TRIS-HCl-pH8.0, 1 mM MgCl2 and protease inhibitors). The cells are lysed by sonication, and after all cells are lysed, TritonX100 is added according to Novagen protocols.
Chain of PDE10A enzyme (Q9Y233 716-1055): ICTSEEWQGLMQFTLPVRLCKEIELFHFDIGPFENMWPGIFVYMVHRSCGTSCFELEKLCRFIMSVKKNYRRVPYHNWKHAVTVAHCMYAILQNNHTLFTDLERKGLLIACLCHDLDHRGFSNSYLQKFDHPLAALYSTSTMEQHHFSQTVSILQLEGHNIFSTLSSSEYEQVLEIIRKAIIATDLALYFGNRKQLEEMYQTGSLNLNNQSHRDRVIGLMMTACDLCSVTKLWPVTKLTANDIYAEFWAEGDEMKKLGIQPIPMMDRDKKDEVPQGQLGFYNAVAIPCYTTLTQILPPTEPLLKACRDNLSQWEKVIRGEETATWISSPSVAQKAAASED
A PDE10A assay may for example, be performed as follows: The assay is performed in 60 uL samples containing a fixed amount of the relevant PDE enzyme (sufficient to convert 20-25% of the cyclic nucleotide substrate), a buffer (50 mM HEPES7.6; 10 mM MgCl2; 0.02% Tween20), 0.1 mg/ml BSA, 225 pCi of ^3H-labelled cyclic nucleotide substrate, tritium labeled cAMP to a final concentration of 5 nM and varying amounts of inhibitors. Reactions are initiated by addition of the cyclic nucleotide substrate, and reactions are allowed to proceed for one hr at room temperature before being terminated through mixing with 15 uL 8 mg/mL yttrium silicate SPA beads (Amersham). The beads are allowed to settle for one hr in the dark before the plates are counted in a Wallac 1450 Microbeta counter. The measured signal can be converted to activity relative to an uninhibited control (100%) and IC50 values can be calculated using the Xlfit extension to EXCEL.
Broadly, the IC50 is the concentration that gives 50% inhibition. Molecule `Cc1ncc(C)n2nc(CCc3c[nH]c(-c4ccccc4)n3)nc12` [5,8-Dimethyl-2-[2-(2-phenyl-1H-imidazol-4-yl)-ethyl]-[1,2,4]triazolo[1,5-a]pyrazine] showed a 50% inhibitory concentration (IC50) of 4.2 nM. As to `Cc1ccc(C)n2nc(CCc3c[nH]c(-c4ccco4)n3)nc12` [2-[2-(2-Furan-2-yl-1H-imidazol-4-yl)-ethyl]-5,8-dimethyl-[1,2,4]triazolo[1,5-a]pyridine], the concentration for half-maximal inhibition (IC50) stood at 0.62 nM. This IC50 lies about 6.8-fold lower than the previous one. The same measure, in the same setting: the figure for `Cc1ccc(C)n2nc(CCc3c[nH]c(-c4cncs4)n3)nc12` [5,8-Dimethyl-2-[2-(2-thiazol-5-yl-1H-imidazol-4-yl)-ethyl]-[1,2,4]triazolo[1,5-a]pyridine] is 3.1 nM; for `Cc1ncc(C)n2nc(CCc3c[nH]c(-c4nccs4)n3)nc12` [5,8-Dimethyl-2-[2-(2-thiazol-2-yl-1H-imidazol-4-yl)-ethyl]-[1,2,4]triazolo[1,5-a]pyrazine] it is 0.63 nM. The same measure, in the same setting: the figure for `Cc1ncc(C)n2nc(CCc3c[nH]c(-c4cncs4)n3)nc12` [5,8-Dimethyl-2-[2-(2-thiazol-5-yl-1H-imidazol-4-yl)-ethyl]-[1,2,4]triazolo[1,5-a]pyrazine] is 6.5 nM; for `Cc1ccc(C)n2nc(CCc3cn(C)c(-c4ccco4)n3)nc12` [2-[2-(2-Furan-2-yl-1-methyl-1H-imidazol-4-yl)-ethyl]-5,8-dimethyl-[1,2,4]triazolo[1,5-a]pyridine] it is 0.75 nM. As for `Cc1ccc(C)n2nc(CCc3c[nH]c(-c4cccs4)n3)nc12` [5,8-Dimethyl-2-[2-(2-thiophen-2-yl-1H-imidazol-4-yl)-ethyl]-[1,2,4]triazolo[1,5-a]pyridine], the concentration for half-maximal inhibition (IC50) stood at 0.34 nM. This IC50 lies about 2.2-fold lower than the previous one. For `Cc1ncc(C)n2nc(CCc3c[nH]c(-c4ccoc4)n3)nc12` [2-[2-(2-Furan-3-yl-1H-imidazol-4-yl)-ethyl]-5,8-dimethyl-[1,2,4]triazolo[1,5-a]pyrazine], it took 0.27 nM to reach half-maximal inhibition (IC50). Same read-out and setting: the figure for `Cc1ccc(C)n2nc(CCc3c[nH]c(-c4nccs4)n3)nc12` [5,8-Dimethyl-2-[2-(2-thiazol-2-yl-1H-imidazol-4-yl)-ethyl]-[1,2,4]triazolo[1,5-a]pyridine] is 1.6 nM; for `CCc1ccc(C)n2nc(CCc3cn(C)c(-c4ccccc4)n3)nc12` [8-Ethyl-5-methyl-2-[2-(1-methyl-2-phenyl-1H-imidazol-4-yl)-ethyl]-[1,2,4]triazolo[1,5-a]pyridine] it is 23 nM.

`Cc1ccc(C)n2nc(CCc3c[nH]c(-c4ccoc4)n3)nc12` [2-[2-(2-Furan-3-yl-1H-imidazol-4-yl)-ethyl]-5,8-dimethyl-[1,2,4]triazolo[1,5-a]pyridine] gave an IC50 of 0.65 nM.

Molecule `Cc1ncc(C)n2nc(CCc3cn(C)c(-c4cscn4)n3)nc12` [5,8-Dimethyl-2-[2-(1-methyl-2-thiazol-4-yl-1H-imidazol-4-yl)-ethyl]-[1,2,4]triazolo[1,5-a]pyrazine] showed an IC50 of 11 nM. Against the preceding molecule, the IC50 is about 17-fold higher. Same read-out and setting: the figure for `Cc1ncc(C)n2nc(CCc3c[nH]c(-c4cscn4)n3)nc12` [5,8-Dimethyl-2-[2-(2-thiazol-4-yl-1H-imidazol-4-yl)-ethyl]-[1,2,4]triazolo[1,5-a]pyrazine] is 3.5 nM; for `Cc1ncc(C)n2nc(CCc3c[nH]c(-c4ccco4)n3)nc12` [2-[2-(2-Furan-2-yl-1H-imidazol-4-yl)-ethyl]-5,8-dimethyl-[1,2,4]triazolo[1,5-a]pyrazine] it is 0.97 nM; for `COc1ccc(C)n2nc(CCc3cn(C)c(-c4cccs4)n3)nc12` [8-Methoxy-5-methyl-2-[2-(1-methyl-2-thiophen-2-yl-1H-imidazol-4-yl)-ethyl]-[1,2,4]triazolo[1,5-a]pyridine] it is 9 nM. The same measure, in the same setting: the figure for `Cc1ncc(C)n2nc(CCc3cn(C)c(-c4nccs4)n3)nc12` [5,8-Dimethyl-2-[2-(1-methyl-2-thiazol-2-yl-1H-imidazol-4-yl)-ethyl]-[1,2,4]triazolo[1,5-a]pyrazine] is 7.7 nM; for `COc1ccc(C)n2nc(CCc3c[nH]c(-c4ccccc4)n3)nc12` [8-Methoxy-5-methyl-2-[2-(2-phenyl-1H-imidazol-4-yl)-ethyl]-[1,2,4]triazolo[1,5-a]pyridine] it is 5.9 nM; for `Cc1ncc(C)n2nc(CCc3cn(C)c(-c4cccs4)n3)nc12` [5,8-Dimethyl-2-[2-(1-methyl-2-thiophen-2-yl-1H-imidazol-4-yl)-ethyl]-[1,2,4]triazolo[1,5-a]pyrazine] it is 1 nM. On to `Cc1ncc(C)n2nc(CCc3cn(C)c(-c4ccco4)n3)nc12` [2-[2-(2-Furan-2-yl-1-methyl-1H-imidazol-4-yl)-ethyl]-5,8-dimethyl-[1,2,4]triazolo[1,5-a]pyrazine], for which the midpoint of inhibition, the IC50, lay at 1.1 nM.

Take `COc1ccc(C)n2nc(CCc3cn(C)c(-c4ccccc4)n3)nc12` [8-Methoxy-5-methyl-2-[2-(1-methyl-2-phenyl-1H-imidazol-4-yl)-ethyl]-[1,2,4]triazolo[1,5-a]pyridine]: the IC50 was determined as 79 nM. The same measure, in the same setting: the result for `Cc1ncc(C)n2nc(CCc3c[nH]c(-c4ccc(F)cc4)n3)nc12` [2-{2-[2-(4-Fluoro-phenyl)-1H-imidazol-4-yl]-ethyl}-5,8-dimethyl-[1,2,4]triazolo[1,5-a]pyrazine] reads 12 nM; that for `Cc1ncc(C)n2nc(CCc3c[nH]c(-c4cccs4)n3)nc12` [5,8-Dimethyl-2-[2-(2-thiophen-2-yl-1H-imidazol-4-yl)-ethyl]-[1,2,4]triazolo[1,5-a]pyrazine], 0.4 nM. The same measure, in the same setting: the figure for `Cc1ncc(C)n2nc(CCc3cn(C)c(-c4cncs4)n3)nc12` [5,8-Dimethyl-2-[2-(1-methyl-2-thiazol-5-yl-1H-imidazol-4-yl)-ethyl]-[1,2,4]triazolo[1,5-a]pyrazine] is 22 nM. On the same count and under the same terms, the result for `Cc1ccc(-c2nc(CCc3nc4c(C)ncc(C)n4n3)cn2C)o1` [5,8-Dimethyl-2-{2-[1-methyl-2-(5-methyl-furan-2-yl)-1H-imidazol-4-yl]-ethyl}-[1,2,4]triazolo[1,5-a]pyrazine] reads 3.5 nM.

In the case of `Cc1ccc(C)n2nc(CCc3c[nH]c(-c4cscn4)n3)nc12` [5,8-Dimethyl-2-[2-(2-thiazol-4-yl-1H-imidazol-4-yl)-ethyl]-[1,2,4]triazolo[1,5-a]pyridine], the concentration for half-maximal inhibition (IC50) came to 3.5 nM.

With `Cc1ncc(C)n2nc(CCc3cn(C)c(-c4ccccc4)n3)nc12` [5,8-Dimethyl-2-[2-(1-methyl-2-phenyl-1H-imidazol-4-yl)-ethyl]-[1,2,4]triazolo[1,5-a]pyrazine], the half-inhibitory concentration (IC50) worked out at 45 nM.

The next assay concerns rats.
Assay: not given
The settings on record: cited from earlier work.
Turning to `COc1ccc(Cc2nccc3cc(OC)c(OC)cc23)cc1OC` [Papaverine, papaverine], the “hyperactivity induced by PCP” value was “reduced hyperactivity”.

The test system of a further assay is rats.
Assay: not given
As to conditions: cited from earlier work. The source holds these as a separate data set.
On to `COc1ccc(Cc2nccc3cc(OC)c(OC)cc23)cc1OC` [Papaverine, papaverine], for which the “reduction of amphetamine induced hyperactivity” value is listed as “insignificant”.
